# From patent US20050261194A1, “Use of thymulin-like peptides for making pain-relieving medicines” (priority 2001, published 2005)
# Assays:
# Type in all cases: in vivo, rat
# IL-1β = IL-1β in hind paw skin after intraplantar ET (ELISA)
# Protocol: (§1) These experiments required tissue sampling. The animals were sacrificed by anesthesia (sodium penthiobarbital, 50 mg/kg) and the skin of the hind paws is sampled either at 1 h (for the determination of the TNFα) or at 4 h (for the determination of IL-1β, IL-6 and NGF) after the endotoxin injection.
# (§2) These tissue samples are weighed and then quick frozen and stored at −70° C. with a view of proceeding with the evaluation of IL-1β, TNFα, IL-6 and NGF.
# (§3) In another series of experiments, the tissues are taken as described above using different groups of rats; the one group being pretreated with TAP 30 minutes before injection of ET and the other group having been injected with TAP only.
# (§4) The tissues are homogenized in a phosphate buffer solution (PBS, pH=7.4), containing 0.4 M of NaCl, 0.05% of Tween-20®, 0.5% bovine serum albumin (BSA), 0.1 mM of phenylmethylsulfonyl fluoride, 0.1 mM of benzethonium chloride, 10 mM of EDTA and 20 KI/mL of aprotinin.
# (§5) The mixture is then centrifuged at 1,200 g for 60 minutes at 4° C. The cytokines and the NFG contained in the supernatant were measured using ELIZA assays. […]
# IL-6 = IL-6 in hind paw skin after intraplantar ET (ELISA)
# Protocol: as §1, §2, §3, §4, §5
# NGF = NGF in hind paw skin after intraplantar ET (immunological kit)
# Protocol: as §1, §2, §3, §4
# The mixture is then centrifuged at 1,200 g for 60 minutes at 4° C. The cytokines and the NFG contained in the supernatant were measured using ELIZA assays.
# The NGF is measure with the aid of an immunological kit (Promega) by following the recommended instructions of the manufacturer. […]
# rats = assay: SNI (spared nerve injury) mononeuropathy: allodynia and hyperpathy
# Protocol: Adult male Sprague-Dawley rats (250-300 g) were used for these trials. Over the period of the experiments, the rats were placed under standard conditions (4 to 5 individuals to a cage, 12 hour day/night cycle, 22.2° C.), with free access to water and food. The necessary surgical procedures were done under deep anesthesia using ketamine (Ketalar®, 40-50 mg/kg, intraperitoneal injection), preceded by pre-anesthesia using chlorpromazine (8 mg/kg, idem) and atropine (0.05 mg/kg, idem).
# Mononeuropathy was induced in different groups of rats (n=6 rats in each group) according to the CCI (chronic constriction injury, chronic nerve constriction, Bennet G. J. et Xie Y. K., 1988, A peripheral mononeuropathy in rat that produces disorders of pain sensation like those seen in man, Pain, 33:87-107) or according to the SNI (spared nerve injury, spared nerve of the enervated paw, Decosterd I. et Woolf C. J., 2000, Spared nerve injury: an animal model of persistent peripheral neuropathic pain, Pain, 87:149-158). The sciatic nerve was exposed after dissection of the posterior hip and by incision through the skin and the fatty layer covering the popliteal fossa. For the CCI model, four loose ligatures (chromed catgut 4.0) were placed on the proximal side of the sciatic trifurcation. For the SNI model, the external popliteal sciatic nerve and the internal popliteal sciatic nerve were isolated, tightly ligatured and sectioned, while the sural nerve innervating the lateral aspect of the paw was left intact.
# The rats were placed in individual compartments of one cage, whose floor was made of a metal grating allowing access to the heel pad and to the lateral aspect of the paw with wires.
# For mechanical allodynia, the plantar surface of the hind paws (lateral surface for the SNI model and the median plantar surface for the CCI) was contacted with the von Frey wires (VFF 4.31 and 5.07, Stoelting Co., USA), which corresponded to the forces of 2.041 and 11.749 g (18.5 and 106.7 mN), respectively. […] The number of paw retractions induced by 10 trials was established for each rat on each hind paw prior to (baseline) and after induction of the mono-neuropathy. In normal rats, the low caliber wires (VFF 4.31) and higher caliber (VFF 5.07) induced an average 1.3±0.2 and 2.7±0.3 responses/10 trials, respectively.
# The method described by Choi et al. (1994, Behavioral signs of ongoing pain and cold allodynia in a rat model of neuropathic pain, Pain, 59:369-376) was used for evaluation of cold allodynia. It consists of applying several drops (approximately 50 μl) of an acetone solution on the paw and measuring the duration of the retraction reaction. One half second and 20 seconds are the values chosen arbitrarily for the minimum and maximum threshold, respectively.
# The duration (D) of retraction of the paw (RP) in response to a nociceptive ray of radiant heat oriented towards the plantar surface was established in the normal rat. […] the DRP after induction of the mononeuropathy was considered to be an indication of hyperalgesia. Each rat underwent two RP tests per session a minimum of every five minutes.
# The neuropathic manifestations were at maximum seven to ten days after induction of the neuropathy. The effects of the injections of TAP were tested during this period, which corresponds to the peak of the neuropathy.
# During the experiments done on rats suffering from neuropathy, allodynia and hyperpathy were evaluated in each group of animals with reference to the baseline condition established prior to induction of mononeuropathy. For example, the average of the number of paw withdrawal induced by each VFF was calculated for all of the rats of each group and the variation of this mean has been determined after treatment with TAP at different time periods after the injection. The same method has been followed for allodynia in the code and the hypertrophy relative to heat.
# [1] = TAP 25 μg in control animals, no ET
# [2] = SNI, meloxican 5 mg/kg i.p., morphine 4 mg/kg i.p., at peak of activity 45-60 minutes after injection, FIG. 10
substance,measurement,setting,value
Glu-Ala-lys-Ser-Gln-Gly-Gly-Ser-Asp (SQGGSD; N-terminal Glu-Ala-Lys; printed: Ser-Gln-Gly-Gly-Ser-Asp) [TAP],"change of IL-1β concentration, TAP alone",IL-1β; [1],did not induce significant change
same,IL-1β concentration,"IL-1β; TAP pretreatment before intraplantar ET, ET alone 2850.6±255.4, saline 400.0±45.0, P<0.01",1686.0±266.0 pg/paw
same,"change of IL-6 concentration, TAP alone",IL-6; [1],did not induce significant change
same,IL-6 concentration,"IL-6; TAP pretreatment before intraplantar ET, ET alone 2831±285, saline 250.0±50.0, p<0.001",1158±197.0 pg/paw
same,"change of NGF concentration, TAP alone",NGF; [1],did not induce significant change
same,NGF concentration,"NGF; TAP pretreatment before intraplantar ET, ET alone 23.0±1.73, saline 9.11±1.6, p<0.001",16.73±2.70 ng/paw
same,"reversibility of the effects, time after injection","rats; SNI, TAP 5 μg i.p.",three to four hours
same,time of maximum effect on all of the neuropathic manifestations after injection,"rats; SNI, TAP 5 μg i.p.",75 min
same,dose giving maximal attenuation of the neuropathic manifestations,"rats; SNI, doses 1, 5 and 25 μg compared, FIG. 7",5 μg/rat
same,reduction of tactile allodynia compared with meloxican and morphine,rats; [2],greater reduction
same,reduction of thermal hyperalgesia compared with meloxican and morphine,rats; [2],greater reduction
same,"effect on cold allodynia, SNI model","rats; TAP 5 μg i.p., single injection",only moderately reduced
same,"effect on neuropathic manifestations, SNI model","rats; TAP 5 μg in 100 μl i.p., FIG. 6",significant attenuation
